Experiment [1] has as its system spindle assembly checkpoint. Briefly: SAC-Formation - Nocodazole-Induced Assay. The experiment is classed as cell-based. To be noted: Homo sapiens; HeLa cells, nocodazole 0.1 μg/ml, 24 h, phosphorylated histone H3 on serine 10. Put shortly: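 HeLa cells were given nocodazole at 0.1 μg/ml final together with compounds (0.005–20 μM, 0.5% DMSO) for 24 h at 37° C. Mitotic cells were counted by phospho-histone H3 Ser10 immunostaining, with cell number from HOECHST 33342, by high-content imaging. The loss of mitotic cells was fitted with a four-parameter Hill equation.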

A further experiment has as its target human Bub1 (Homo sapiens (Human), UniProt O43683). Nature of the experiment: Bub1 kinase assay (TR-FRET). Format: biochemical. To be noted: 10 μM ATP; read-out: Bub1 avg (IC50 [mol/l]). An outline of the steps:
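His6-tagged human Bub1 catalytic domain (aa 704-1085, insect-cell expressed, ~200 ng/ml) preincubated with compound 15 min, then reacted 60 min at 22 °C with 10 μM ATP and 1 μM biotinylated peptide (final) in pH 7.5 Tris buffer. Phosphopeptide detected by TR-FRET 665/620 ratio, normalised to no-inhibitor and no-enzyme controls.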

Each structure is given as a SMILES string.

Chain of human Bub1 (O43683 704-1085): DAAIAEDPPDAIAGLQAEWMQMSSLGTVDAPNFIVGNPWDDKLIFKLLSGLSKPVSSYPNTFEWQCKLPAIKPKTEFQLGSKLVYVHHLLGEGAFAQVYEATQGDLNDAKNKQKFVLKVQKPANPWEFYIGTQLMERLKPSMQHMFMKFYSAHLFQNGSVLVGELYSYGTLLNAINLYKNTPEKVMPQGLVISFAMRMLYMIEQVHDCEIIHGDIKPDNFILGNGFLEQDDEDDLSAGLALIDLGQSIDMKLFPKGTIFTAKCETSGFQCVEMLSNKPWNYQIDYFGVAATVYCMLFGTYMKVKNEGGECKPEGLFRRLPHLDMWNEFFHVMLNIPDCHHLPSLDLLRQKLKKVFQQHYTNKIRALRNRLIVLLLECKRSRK

In the case of `Cc1nsc(Nc2nc3c(C(F)(F)F)cccc3s2)c1C(=O)Nc1ccc(Cl)c(F)c1` [Example 53, N-(4-Chloro-3-fluorophenyl)-3-methyl-5-{[4-(trifluoromethyl)-1,3-benzothiazol-2-yl]amino}-1,2-thiazole-4-carboxamide], the figures for the IC50 (in experiment [1]; at human Bub1) were 340 nM and > 20000 nM, respectively.
The like results for `Cc1nsc(Nc2cc(C#N)ccn2)c1C(=O)Nc1ccc(Cl)c(F)c1` [Example 54, N-(4-Chloro-3-fluorophenyl)-5-[(4-cyanopyridin-2-yl)amino]-3-methyl-1,2-thiazole-4-carboxamide] were, in that order, 19 nM and > 20000 nM.
The like results for `CCOC(=O)c1cnn2ccc(Nc3snc(C)c3C(=O)Nc3ccc(F)c(F)c3)nc12` [Example 55, Ethyl 5-({4-[(3,4-difluorophenyl)carbamoyl]-3-methyl-1,2-thiazol-5-yl}amino)-pyrazolo[1,5-a]pyrimidine-3-carboxylate] were, in that order, 220 nM and > 20000 nM.
As to `Cc1nsc(Nc2cnccn2)c1C(=O)Nc1ccc(Cl)c(F)c1` [Example 56, N-(4-Chloro-3-fluorophenyl)-3-methyl-5-(pyrazin-2-ylamino)-1,2-thiazole-4-carboxamide], the IC50 in experiment [1] is 67 nM; at human Bub1, > 20000 nM.
On the same counts, the results for `Cc1nsc(Nc2ccn3nccc3n2)c1C(=O)Nc1ccc(F)c(F)c1` [Example 57, N-(3,4-Difluorophenyl)-3-methyl-5-(pyrazolo[1,5-a]pyrimidin-5-ylamino)-1,2-thiazole-4-carboxamide] are 520 nM and > 20000 nM.
On the same counts, the results for `CCOC(=O)c1cnc(Nc2snc(C)c2C(=O)Nc2ccc(F)c(F)c2)o1` [Example 96, Ethyl 2-({4-[(3,4-difluorophenyl)carbamoyl]-3-methyl-1,2-thiazol-5-yl}amino)-1,3-oxazole-5-carboxylate] are 1200 nM and > 20000 nM.
The like results for `COC(=O)c1cnc(Nc2snc(C)c2C(=O)Nc2ccc(F)c(F)c2)o1` [Example 97, Methyl 2-({4-[(3,4-difluoro-phenyl)carbamoyl]-3-methyl-1,2-thiazol-5-yl}amino)-1,3-oxazole-5-carboxylate] were, in that order, 5900 nM and > 20000 nM.
With `CCOC(=O)c1coc(Nc2snc(C)c2C(=O)Nc2ccc(F)c(F)c2)n1` [Example 98, Ethyl 2-({4-[(3,4-difluoro-phenyl)carbamoyl]-3-methyl-1,2-thiazol-5-yl}amino)-1,3-oxazole-4-carboxylate], the IC50 was 3000 nM in experiment [1] and > 20000 nM on human Bub1.
The like results for `CCNC(=O)c1csc(Nc2snc(C)c2C(=O)Nc2ccc(F)c(F)c2)n1` [Example 99, N-(3,4-Difluorophenyl)-5-{[4-(ethylcarbamoyl)-1,3-thiazol-2-yl]amino}-3-methyl-1,2-thiazole-4-carboxamide] were, in that order, 20000 nM and > 20000 nM.
The like results for `CCOC(=O)c1coc(Nc2snc(C)c2C(=O)Nc2ccc(OC)nc2)n1` [Example 100, Ethyl 2-({4-[(6-methoxypyridin-3-yl)carbamoyl]-3 methyl-1,2-thiazol-5-yl}amino)-1,3-oxazole-4-carboxylate] were, in that order, 5500 nM and > 20000 nM.
On the same counts, the results for `COC(=O)c1cncc(Nc2snc(C)c2C(=O)Nc2ccc(OC)nc2)n1` [Example 101, Methyl 6-({4-[(6-methoxypyridin-3-yl)carbamoyl]-3-methyl-1,2-thiazol-5-yl}amino)pyrazine-2-carboxylate] are 1800 nM and > 20000 nM.
`Cc1nsc(Nc2nc3c(C(F)(F)F)cccc3s2)c1C(=O)Nc1ccc(Cl)c(Cl)c1` [Example 102, N-(3,4-Dichlorophenyl)-3-methyl-5-{[4-(trifluoromethyl)-1,3-benzothiazol-2-yl]amino}-1,2-thiazole-4-carboxamide]: the IC50 in experiment [1] was 220 nM; at human Bub1, > 20000 nM.
The like results for `Cc1nsc(Nc2nc3c(C(F)(F)F)ccnc3s2)c1C(=O)Nc1ccc(Cl)c(F)c1` [Example 103, N-(4-Chloro-3-fluorophenyl)-3-methyl-5-{[7-(trifluoromethyl)[1,3]thiazolo[5,4-b]pyridin-2-yl]amino}-1,2-thiazole-4-carboxamide] were, in that order, 240 nM and > 20000 nM.
On the same counts, the results for `Cc1nsc(Nc2cncc(C(=O)N(C)C)n2)c1C(=O)Nc1ccc(F)c(F)c1` [Example 104, 6-({4-[(3,4-Difluorophenyl)-carbamoyl]-3-methyl-1,2-thiazol-5-yl}amino)-N,N-dimethyl-pyrazine-2-carboxamide] are 530 nM and > 20000 nM.
The like results for `Cc1nsc(Nc2cncc(N(C)C)n2)c1C(=O)Nc1ccc(F)c(F)c1` [Example 105, N-(3,4-Difluorophenyl)-5-{[6-(dimethylamino)pyrazin-2-yl]amino}-3-methyl-1,2-thiazole-4-carboxamide] were, in that order, 2000 nM and > 20000 nM.
As to `Cc1nsc(Nc2cncc(C(=O)N3CCCC3)n2)c1C(=O)Nc1ccc(F)c(F)c1` [Example 106, N-(3,4-Difluorophenyl)-3-methyl-5-{[6-(pyrrolidin-1-ylcarbonyl)pyrazin-2-yl]amino}-1,2-thiazole-4-carboxamide], the figures for the IC50 (in experiment [1]; on human Bub1) were 260 nM and > 20000 nM, respectively.
On the same counts, the results for `Cc1nsc(Nc2cncc(C(=O)N3CCOCC3)n2)c1C(=O)Nc1ccc(F)c(F)c1` [Example 107, N-(3,4-Difluorophenyl)-3-methyl-5-{[6-(morpholin-4-ylcarbonyl)pyrazin-2-yl]amino}-1,2-thiazole-4-carboxamide] are 340 nM and > 20000 nM.
On the same counts, the results for `CNC(=O)c1ccnc(Nc2snc(C)c2C(=O)Nc2ccc(F)c(F)c2)c1` [Example 108, 2-({4-[(3,4-Difluorophenyl)-carbamoyl]-3-methyl-1,2-thiazol-5-yl}amino)-N-methyliso-nicotinamide] are 1800 nM and > 20000 nM.
In the case of `Cc1nsc(Nc2cnc(C(=O)N(C)C)cn2)c1C(=O)Nc1ccc(F)c(F)c1` [Example 109, 5-({4-[(3,4-Difluorophenyl)carbamoyl]-3-methyl-1,2-thiazol-5-yl}amino)-N,N-dimethylpyrazine-2-carboxamide], the IC50 in experiment [1] is 1100 nM; at human Bub1 it was > 20000 nM.
For `Cc1nsc(Nc2ccc(C#N)cn2)c1C(=O)Nc1ccc(OC(C)C)nc1` [Example 110, 5-[(5-Cyanopyridin-2-yl)amino]-N-(6-isopropoxyridin-3-yl)-3-methyl-1,2-thiazole-4-carboxamide], the IC50 in experiment [1] was 650 nM; at human Bub1 it was > 20000 nM.
The like results for `Cc1nsc(Nc2cc(C#N)ccn2)c1C(=O)Nc1ccc(Oc2ccccc2)nc1` [Example 111, 5-[(4-Cyanopyridin-2-yl)amino]-3-methyl-N-(6-phenoxypyridin-3-yl)-1,2-thiazole-4-carboxamide] were, in that order, 200 nM and > 20000 nM.
Turning to `Cc1nsc(Nc2cnc3ccccc3n2)c1C(=O)Nc1ccc(Oc2ccccc2)nc1` [Example 112, 3-Methyl-N-(6-phenoxypyridin-3-yl)-5-(quinoxalin-2-ylamino)-1,2-thiazole-4-carboxamide], the IC50 in experiment [1] was 18 nM; on human Bub1, > 20000 nM.

These data come from patent US9682995B2, “Amino-substituted isothiazoles” (BAYER PHARMA AKTIENGESELLSCHAFT, priority 2013, dated 2017).
